Data on two compounds can be found in publication PMC6270263, “Factors Influencing the Antifolate Activity of Synthetic Tea-Derived Catechins” (Molecules, 2013).

The assay relates to SK-MEL-28 melanoma cells. The experiment in a line: Apoptosis assay (cell death detection ELISA) with or without site markers. Type of assay: cell-based, human. The note with it: SK-MEL-28, 10 µM, alone. The source says:
Serum is commonly used as a supplement in cell culture media. It supports cell growth and product formation by providing a broad spectrum of macromolecules, attachment factors, nutrients, and hormone and growth factors. The most commonly used animal serum supplement is foetal bovine serum, FBS (alternatively called foetal calf serum—FCS). Because BSA is a major component of FBS, the in vitro activity of catechins on tumour cells might be affected by their interaction with BSA. The effect of albumin binding on the biological activity of polyphenols is unclear. Does the bound ligand have some biological activity or does the polyphenol have to be in the free form to be active? To answer this question and to determine whether BSA-catechin interactions increase or decrease catechin anti-tumour activity, the proapoptotic activity of TMCG on SK-MEL-28 melanoma cells was probed in the presence of warfarin or ibuprofen [Figure 5(b)]. […] Because the binding of catechins to BSA seems to control drug availability, the lower affinity of TMCG and TMECG for serum albumins, with respect to natural tea catechins, might contribute to the high in vivo anti-tumour activity of these methylated synthetic catechins. […]
The human melanoma cell line SK-MEL-28 was obtained from American Type Culture Collection (ATCC, Manassas, VA, USA) and was maintained in Eagles’s Minimum Essential Medium (EMEM) supplemented with 10% (v/v) FBS and antibiotics at 37 °C in a humidified atmosphere containing 7.5% CO2. Cell viability was evaluated using the MTT cell proliferation assay. Cells were evaluated for apoptosis using a cell death detection ELISA (Cell Death Detection ELISAPLUS, Roche Diagnostics, Barcelona, Spain). […] The amount of nucleosomes is photometrically quantified at 405 nm by the peroxidase activity retained in the immunocomplexes. Apoptosis was defined as the specific enrichment of mono- and oligonucleosomes in the cytoplasm and was calculated by dividing the absorbance of treated samples with the absorbance of untreated samples after correcting for the number of cells. […]
In general terms: ELISA stands for enzyme-linked immunosorbent assay.

Turning to `CC(C)Cc1ccc(C(C)C(=O)O)cc1` (centres unmarked) [ibuprofen, reference compound], the “Induction of apoptosis, compound alone” value is “did not induce apoptosis”.
In the case of `CC(=O)CC(c1ccccc1)c1c(O)c2ccccc2oc1=O` (centres unmarked) [warfarin, reference compound] it was “did not induce apoptosis”.
